Here are results for three compounds from ChEMBL document CHEMBL5729558, “Morpholinylpyridone compounds” (2023).

Sequence of Phosphatidylinositol 3-kinase catalytic subunit type 3 (Q8NEB9 whole entry): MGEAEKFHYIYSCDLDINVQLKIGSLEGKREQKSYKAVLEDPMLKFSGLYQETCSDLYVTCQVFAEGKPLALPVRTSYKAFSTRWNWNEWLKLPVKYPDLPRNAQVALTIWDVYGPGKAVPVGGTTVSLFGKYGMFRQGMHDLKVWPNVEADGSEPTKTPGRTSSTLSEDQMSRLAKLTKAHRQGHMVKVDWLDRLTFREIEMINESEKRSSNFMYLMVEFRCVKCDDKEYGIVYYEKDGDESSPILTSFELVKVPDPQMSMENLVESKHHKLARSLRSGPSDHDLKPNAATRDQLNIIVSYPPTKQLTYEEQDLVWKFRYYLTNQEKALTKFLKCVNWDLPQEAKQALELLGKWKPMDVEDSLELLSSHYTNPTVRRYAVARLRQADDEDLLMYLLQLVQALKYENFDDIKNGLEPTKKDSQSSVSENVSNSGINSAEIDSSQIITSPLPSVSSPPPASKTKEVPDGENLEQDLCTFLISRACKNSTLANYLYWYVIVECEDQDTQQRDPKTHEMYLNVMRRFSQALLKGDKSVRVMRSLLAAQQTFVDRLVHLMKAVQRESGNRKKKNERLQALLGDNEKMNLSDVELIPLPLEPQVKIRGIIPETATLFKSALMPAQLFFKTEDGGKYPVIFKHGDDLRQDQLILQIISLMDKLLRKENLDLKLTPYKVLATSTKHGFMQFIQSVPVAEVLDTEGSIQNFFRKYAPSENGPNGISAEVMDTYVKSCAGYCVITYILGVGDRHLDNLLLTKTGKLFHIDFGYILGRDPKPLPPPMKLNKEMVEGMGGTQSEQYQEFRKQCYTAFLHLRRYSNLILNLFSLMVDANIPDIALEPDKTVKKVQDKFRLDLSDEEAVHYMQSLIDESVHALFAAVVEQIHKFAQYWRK

This assay concerns the target Phosphatidylinositol 3-kinase catalytic subunit type 3 (Homo sapiens, UniProt Q8NEB9). The experiment in a line: Vps34 Biochemical Assay: Dilution series of compounds of the invention were prepared in DMSO at 100 times the final assay concentration (n1=n0/3 in 10 points). The compounds were further diluted to 4 times the assay concentration in assay buffer (Life technologies buffer Q, PV5125, diluted 5 times supplemented with 2 mM DTT and 2 mM MnCl2). 2.5 μl of the diluted compounds were added to a 384 well assay plate followed by 2.5 μl of 16.5 nM Vps34 enzyme (Life technologies, PV5126). Enzyme and compounds were pre-incubated at rt for 15 min. Then 5 μl of substrate mix containing 20 μM ATP (Life technologies, PV3227) and 200 μM PI:PS substrate (Life technologies, PV5122) in assay buffer was added to the wells containing compound and enzyme. Mixing was performed by pipetting several times. The reaction was incubated at room temperature for 1 h. Then 5 μl stop-detection mix, prepared as described in the Adapta kinase assay kit instructions (Life technologies, PV5099) containing Adapta Eu-anti-ADP antibody (2.3 nM), Alexa Fluor 647 ADP tracer (9 nM) and EDTA (30 mM) in TR-FRET buffer, was added to quench the reaction. Mixing was performed by pipetting several times. The assay plate was then incubated at room temperature for 30 min and read with Artemis micro plate reader. Percent inhibition of the compounds as compared to DMSO treated control samples was calculated. By the use of Dotmatics software compound concentration versus percent inhibition was fitted to generate IC50 values.
Broadly, the IC50 is the concentration that gives 50% inhibition. For the compound `C[C@@H]1COCCN1c1cc(N2CCN(S(=O)(=O)c3ccnn3C)CC2C(F)(F)F)[nH]c(=O)c1` (stereo partly drawn), the IC50 was below 5 nM.
Under `C[C@@H]1COCCN1c1cc(N2CCN(S(=O)(=O)N3CCOCC3)CC2C(F)(F)F)[nH]c(=O)c1` (stereo partly drawn) stands below 5 nM.
On to `C[C@@H]1COCCN1c1cc(N2CCN(S(=O)(=O)C3CC3)CC2C(F)(F)F)[nH]c(=O)c1` (stereo partly drawn), for which the IC50 is below 5 nM.
